Consider two molecules from PMC9883252 (iScience, 2023).

The subject of test [1] is P. falciparum NF54 strain. The test can be described thus: Inhibition activity in the asexual blood stages. The class given is cell-based. Conditions: Plasmodium falciparum, NF54, 72 h, read-out: Pf IC50 (mean).
The subject of test [2] is P. falciparum gametocytes (NF54 and 3601E1). Description: Activity against synchronous gametocytes. In kind it is cell-based, Plasmodium falciparum. Conditions: stage V.

SMILES strings stand for the structures.

`COc1ccc2cc1Oc1ccc(cc1)C[C@@H]1NCCc3cc(OC)c4c(c31)Oc1cc3c(cc1O4)CCN(C)[C@H]3C2` [trilobine]: the 50% inhibitory concentration (IC50) in test [1] is 0.41 µM.
Take `COc1ccc(C[C@H](N)C(=O)N[C@H]2[C@@H](O)[C@H](n3cnc4c(N(C)C)ncnc43)O[C@@H]2CO)cc1` [Puromycin, puromycin]: the “killing of late stage gametocytes” value in test [2] was “does not reach complete killing”.

As usually defined, the IC50 is the midpoint of a concentration-inhibition curve.
